# Measured values taken from the supplement of paper PMC10307832.
# Compound: C1CC(C2=C(C1)C3=C(N2)C=CC(=C3)Cl)C(=O)N [Selisistat] + CC(=O)Nc1cccc(-n2c(=O)n(C3CC3)c(=O)c3c(Nc4ccc(I)cc4F)n(C)c(=O)c(C)c32)c1 [Trametinib] (partner 0.02 µM)
# Test: relative viability (nuclei count vs DMSO), 5 days (fraction); higher = more cells survive
# Conditions: first compound 0.4 µM
# How it was run: (§1)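 For relative viability, nuclei counts in treated wells were divided by those in vehicle wells. Lung cancer cell lines had been pin-tool dosed in 1536-well plates the day after seeding and cultured for 5 days, then fixed and stained in one step (final 0.05% Triton X-100, 1% formaldehyde, 1 ug/ml Hoechst) and imaged at 4×. Doses were one drug alone or a fixed anchor-drug dose plus five library-drug doses (not always all listed) in √10 steps, and values are duplicate-plate medians.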
row,Cell Line,relative viability
1,NCI-H2087,0.194
2,NCI-H2342,0.931
3,SK-MES-1,0.589
4,H3255,0.664
5,COR-L23,0.66
6,COR-L 105,0.45
7,LOU-NH91,0.805
8,ChaGo-K-1,0.895
9,NCI-H2170,1.07
10,NCI-H2405,0.676
11,HOP-62,0.431
12,SW 900,1.03
13,NCI-H1648,0.448
14,NCI-H1395,1.13
15,CAL-12T,0.375
16,NCI-H2228,0.666
17,NCI-H1793,0.38
18,NCI-H1944,0.437
19,NCI-H358,0.146

# Same assay, conditions: first compound 1.265 µM
row,Cell Line,relative viability
1,NCI-H522,0.653
2,NCI-H727,0.38
3,NCI-H1650,0.572
4,NCI-H1993,0.496
5,SW 1573,0.505
6,NCI-H838,0.482
7,LCLC-103H,0.731
8,NCI-H520,0.599
9,NCI-H2126,0.57
10,EMC-BAC-2,0.927
11,NCI-H2085,0.61
12,HCC-366,0.302
13,NCI-H1666,0.833
14,NCI-H596,0.843
15,LK-2,0.677
16,NCI-H2087,0.164
17,NCI-H2342,0.826

row,Cell Line,relative viability
1,SK-MES-1,0.539
2,H3255,0.526
3,COR-L23,0.597
4,COR-L 105,0.421
5,LOU-NH91,0.799
6,ChaGo-K-1,0.886
7,NCI-H2170,0.939
8,NCI-H2405,0.602
9,HOP-62,0.394
10,SW 900,0.87
11,NCI-H1648,0.399
12,NCI-H1395,0.939
13,CAL-12T,0.365
14,NCI-H2228,0.362
15,NCI-H1793,0.431
16,NCI-H1944,0.383
17,NCI-H358,0.16

# Same assay, conditions: first compound 4 µM
row,Cell Line,relative viability
1,NCI-H522,0.745
2,NCI-H727,0.409
3,NCI-H1650,0.531
4,NCI-H838,0.511
5,LCLC-103H,0.75
6,NCI-H520,0.651
7,NCI-H2126,0.565
8,EMC-BAC-2,0.96
9,NCI-H2085,0.581
10,HCC-366,0.329
11,NCI-H1666,0.987
12,NCI-H596,0.831
13,LK-2,0.711
14,NCI-H2342,0.801
15,SK-MES-1,0.55
16,H3255,0.584
17,COR-L23,0.656
18,COR-L 105,0.421
19,LOU-NH91,0.767
20,ChaGo-K-1,0.881
21,NCI-H2170,0.85
22,HOP-62,0.362
23,SW 900,0.78
24,CAL-12T,0.35
25,NCI-H2228,0.564
26,NCI-H1944,0.455
27,NCI-H358,0.122

# Same assay, conditions: first compound 12.65 µM
row,Cell Line,relative viability
1,NCI-H522,0.751
2,NCI-H727,0.427
3,NCI-H1650,0.577
4,NCI-H1993,0.518
5,SW 1573,0.563
6,NCI-H838,0.516
7,LCLC-103H,0.651
8,NCI-H520,0.681
9,NCI-H2126,0.555
10,EMC-BAC-2,0.885
11,NCI-H2085,0.554
12,HCC-366,0.301
13,NCI-H1666,0.839
14,NCI-H596,0.733
15,LK-2,0.656
16,NCI-H2087,0.22
17,NCI-H2342,0.736

row,Cell Line,relative viability
1,SK-MES-1,0.492
2,H3255,0.636
3,COR-L23,0.614
4,COR-L 105,0.442
5,LOU-NH91,0.798
6,ChaGo-K-1,0.895
7,NCI-H2170,0.919
8,NCI-H2405,0.601
9,HOP-62,0.401
10,SW 900,0.995
11,NCI-H1648,0.453
12,NCI-H1395,0.979
13,CAL-12T,0.311
14,NCI-H2228,0.537
15,NCI-H1793,0.438
16,NCI-H1944,0.44
17,NCI-H358,0.129

# Same assay, conditions: first compound 40 µM
row,Cell Line,relative viability
1,NCI-H522,0.589
2,NCI-H727,0.44
3,NCI-H1650,0.465
4,NCI-H1993,0.573
5,SW 1573,0.565
6,NCI-H838,0.507
7,LCLC-103H,0.711
8,NCI-H520,0.637
9,NCI-H2126,0.605
10,EMC-BAC-2,0.816
11,NCI-H2085,0.761
12,HCC-366,0.285
13,NCI-H1666,0.83
14,NCI-H596,0.813
15,LK-2,1.01
16,NCI-H2087,0.202
17,NCI-H2342,0.988

row,Cell Line,relative viability
1,SK-MES-1,0.459
2,H3255,0.637
3,COR-L23,0.645
4,COR-L 105,0.512
5,LOU-NH91,0.776
6,ChaGo-K-1,0.888
7,NCI-H2170,0.973
8,NCI-H2405,0.682
9,HOP-62,0.408
10,SW 900,0.78
11,NCI-H1648,0.431
12,NCI-H1395,0.917
13,CAL-12T,0.341
14,NCI-H2228,0.372
15,NCI-H1793,0.381
16,NCI-H1944,0.446
17,NCI-H358,0.122

# Compound: c1ccc2c(CCNc3ccc(Nc4ccncc4)cc3)c[nH]c2c1 [Serdemetan] + C[C@@H](Oc1cc(-c2cnn(C3CCNCC3)c2)cnc1N)c1c(Cl)ccc(F)c1Cl [Crizotinib] (partner 1 µM)
# Test: as above
# Conditions: first compound 0.04 µM
# How it was run: as §1
row,Cell Line,relative viability
1,NCI-H727,1.01
2,NCI-H1650,0.914
3,EBC-1,0.19
4,NCI-H1703,0.665
5,NCI-H1993,0.951
6,SW 1573,0.851
7,NCI-H838,0.781
8,LCLC-103H,0.977
9,NCI-H520,0.692
10,NCI-H2126,1.02
11,EMC-BAC-2,0.727
12,NCI-H2085,0.688
13,Calu-6,0.832
